Assays:
[1] = system: RKO (RKOp27) human colon adenocarcinoma cells; assay: Alamar Blue cell viability assay, anti-proliferative/cytotoxic activity on proliferating (uninduced) RKOp27 cells; assay type: cell-based; conditions: 72 hours incubation, absence of the inducer Ponasterone A, read-out: IC50 RKO p27 uninduced (proliferating)
In short: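 RKOp27 subclones seeded at 5000 cells/well, compounds added after 24 h in DMEM/10% FCS, quadruplicates, 72 h at 37 °C, 5% CO2. Alamar Blue fluorescence (ex 544/em 590 nm) normalised to untreated cells (1% DMSO medium) as 100%; IC50 from concentration-effect curves.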

[2] = system: RKO colon adenocarcinoma cells (RKOp27) arrested by the expression of ectopic p27Kip1; assay: Alamar Blue cell viability assay on RKOp27 cells arrested by p27Kip1 expression induced by Ponasterone A; assay type: cell-based; conditions: Homo sapiens, 72 hours incubation, 10 μM Ponasterone A, read-out: IC50 RKO p27 induced (arrested)
In short: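 RKOp27 cells, 15000/well, held in DMEM with 10% FCS and with or without 10 μM Ponasterone A to induce p27Kip1 arrest. Compound dilutions added 24 h after seeding, then 72 h at 37 °C in quadruplicate. Alamar Blue fluorescence (544/590 nm) gave % viability relative to untreated cells.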

Row | Structure (SMILES) | IC50 [2] [nM] | IC50 [1] [nM]
1 | COc1ccc(C)cc1CCC(=O)Nc1sc2c(c1C#N)CCN(C(=O)CCc1cnccc1OC)C2 [Example 41, N-{3-Cyano-6-[3-(4-methoxy-pyridin-3-yl)-propanoyl]-4,5,6,7-tetrahydro-thieno[2,3-c]pyridin-2-yl}-3-(2-methoxy-5-methyl-phenyl)-propionamide] | ≥ 40000 | 300 to 2000
2 | CCOc1ccccc1C(C)CC(=O)Nc1sc2c(c1C#N)CCN(C(=O)Cc1cccnc1)C2 (racemic) [Example 67, (RS)—N-[3-Cyano-6-(2-pyridin-3-yl-ethanoyl)-4,5,6,7-tetrahydro-thieno[2,3-c]pyridin-2-yl]-3-(2-ethoxy-phenyl)-butyramide] | > 100000 | ≤ 300
3 | CCOc1ccccc1CCC(=O)Nc1sc2c(c1C#N)CCN(C(=O)CCOC)C2 [Example 13, N-[3-Cyano-6-(3-methoxy-propanoyl)-4,5,6,7-tetrahydro-thieno[2,3-c]pyridin-2-yl]-3-(2-ethoxy-phenyl)-propionamide] | > 100000 | ≤ 300
4 | COc1ccc(OC)c(CCC(=O)Nc2sc3c(c2C#N)CCN(C(=O)Cc2cccnc2)C3)c1 [Example 36, N-[3-Cyano-6-(2-pyridin-3-yl-ethanoyl)-4,5,6,7-tetrahydro-thieno[2,3-c]pyridin-2-yl]-3-(2,5-dimethoxy-phenyl)-propionamide] | > 100000 | 300 to 2000
5 | COc1ccccc1CCC(=O)Nc1sc2c(c1C#N)CCN(C(=O)CC(C)n1ccnc1)C2 (racemic) [Example 56, N-[3-Cyano-6-((RS)-3-imidazol-1-yl-butanoyl)-4,5,6,7-tetrahydro-thieno[2,3-c]pyridin-2-yl]-3-(2-methoxy-phenyl)-propionamide] | ≥ 40000 | 300 to 2000
6 | COc1ccccc1C(C)CC(=O)Nc1sc2c(c1C#N)CCN(C(=O)Cn1ccnc1)C2 (racemic) [Example 82, (RS)—N-[3-Cyano-6-(2-Imidazol-1-yl-ethanoyl)-4,5,6,7-tetrahydro-thieno[2,3-c]pyridin-2-yl]-3-(2-methoxy-phenyl)-butyramide] | ≥ 40000 | 300 to 2000
7 | COc1cccc(CCC(=O)Nc2sc3c(c2C#N)CCN(C(=O)Cn2ccnc2)C3)c1 [Example 55, N-[3-Cyano-6-(2-imidazol-1-yl-ethanoyl)-4,5,6,7-tetrahydro-thieno[2,3-c]pyridin-2-yl]-3-(3-methoxy-phenyl)-propionamide] | ≥ 40000 | 300 to 2000
8 | CCCC(=O)N1CCc2c(sc(NC(=O)CC(C)c3cccc(OC)c3)c2C#N)C1 (racemic) [Example 87, (RS)—N-(6-Butyryl-3-cyano-4,5,6,7-tetrahydro-thieno[2,3-c]pyridin-2-yl)-3-(3-methoxy-phenyl)-butyramide] | > 100000 | 300 to 2000
9 | COc1ccccc1C(C)CC(=O)Nc1sc2c(c1C#N)CCN(C(=O)CCc1ccccn1)C2 (racemic) [Example 94, (RS)—N-[3-Cyano-6-(3-pyridin-2-yl-propanoyl)-4,5,6,7-tetrahydro-thieno[2,3-c]pyridin-2-yl]-3-(2-methoxy-phenyl)-butyramide] | > 100000 | 300 to 2000
10 | COc1ccc(C)cc1CCC(=O)Nc1sc2c(c1C#N)CCN(C(=O)Cn1ccnc1)C2 [Example 86, N-[3-Cyano-6-(2-imidazol-1-yl-ethanoyl)-4,5,6,7-tetrahydro-thieno[2,3-c]pyridin-2-yl]-3-(2-methoxy-5-methyl-phenyl)-propionamide] | ≥ 40000 | 300 to 2000
11 | COc1ccc(C)cc1CCC(=O)Nc1sc2c(c1C#N)CCN(C(=O)Cc1ccncc1)C2 [Example 74, N-[3-Cyano-6-(2-pyridin-4-yl-ethanoyl)-4,5,6,7-tetrahydro-thieno[2,3-c]pyridin-2-yl]-3-(2-methoxy-5-methyl-phenyl)-propionamide] | > 100000 | ≤ 300
12 | COc1cccc(CCC(=O)Nc2sc3c(c2C#N)CCN(C(=O)Cc2ccncc2)C3)c1 [Example 72, N-[3-Cyano-6-(2-pyridin-4-yl-ethanoyl)-4,5,6,7-tetrahydro-thieno[2,3-c]pyridin-2-yl]-3-(3-methoxy-phenyl)-propionamide] | > 100000 | ≤ 300
13 | COc1cccc(CCC(=O)Nc2sc3c(c2C#N)CCN(C(=O)CCc2cccnc2)C3)c1 [Example 14, N-[3-Cyano-6-(3-pyridin-3-yl-propanoyl)-4,5,6,7-tetrahydro-thieno[2,3-c]pyridin-2-yl]-3-(3-methoxy-phenyl)-propionamide] | > 100000 | 300 to 2000
14 | CCOc1ccccc1CCC(=O)Nc1sc2c(c1C#N)CCN(C(=O)Cc1cccnc1)C2 [Example 27, N-[3-Cyano-6-(2-pyridin-3-yl-ethanoyl)-4,5,6,7-tetrahydro-thieno[2,3-c]pyridin-2-yl]-3-(2-ethoxy-phenyl)-propionamide] | ≥ 40000 | ≤ 300
15 | COc1ccc(C)cc1CCC(=O)Nc1sc2c(c1C#N)CCN(C(=O)CCn1ccnc1)C2 [Example 40, N-[3-Cyano-6-(3-imidazol-1-yl-propanoyl)-4,5,6,7-tetrahydro-thieno[2,3-c]pyridin-2-yl]-3-(2-methoxy-5-methyl-phenyl)-propionamide] | ≥ 40000 | 300 to 2000
16 | CCOc1ccccc1CCC(=O)Nc1sc2c(c1C#N)CCN(C(=O)Cc1ccncc1)C2 [Example 73, N-[3-Cyano-6-(2-pyridin-4-yl-ethanoyl)-4,5,6,7-tetrahydro-thieno[2,3-c]pyridin-2-yl]-3-(2-ethoxy-phenyl)-propionamide] | ≥ 40000 | ≤ 300
17 | COCCOCC(=O)N1CCc2c(sc(NC(=O)CCc3cccc(OC)c3)c2C#N)C1 [Example 30, N-{3-Cyano-6-[2-(2-methoxy-ethoxy)-ethanoyl]-4,5,6,7-tetrahydro-thieno[2,3-c]pyridin-2-yl}-3-(3-methoxy-phenyl)-propionamide] | > 100000 | 300 to 2000

The next lines start with results.

Row | IC50 [2] [nM] | Structure (SMILES) | IC50 [1] [nM]
18 | ≥ 10000 | COc1ccc(C)cc1CCC(=O)Nc1sc2c(c1C#N)CCN(C(=O)CCc1ccncc1)C2 [Example 124, N-[3-Cyano-6-(3-pyridin-4-yl-propanoyl)-4,5,6,7-tetrahydro-thieno[2,3-c]pyridin-2-yl]-3-(2-methoxy-5-methyl-phenyl)-propionamide] | 300 to 2000
19 | ≥ 10000 | CCOc1ccccc1CCC(=O)Nc1sc2c(c1C#N)CCN(C(=O)CCn1ccnc1)C2 [Example 102, N-[3-Cyano-6-(3-Imidazol-1-yl-propanoyl)-4,5,6,7-tetrahydro-thieno[2,3-c]pyridin-2-yl]-3-(2-ethoxy-phenyl)-propionamide] | ≤ 300
20 | ≥ 10000 | CCOc1ccccc1C(C)CC(=O)Nc1sc2c(c1C#N)CCN(C(=O)CCc1ccccn1)C2 (racemic) [Example 137, (RS)—N-[3-Cyano-6-(3-pyridin-2-yl-propanoyl)-4,5,6,7-tetrahydro-thieno[2,3-c]pyridin-2-yl]-3-(2-ethoxy-phenyl)-butyramide] | ≤ 300
21 | ≥ 10000 | CCOc1ccccc1C(C)CC(=O)Nc1sc2c(c1C#N)CCN(C(=O)CCn1cnc(C)c1)C2 (racemic) [Example 153, (RS)—N-{3-Cyano-6-[3-(4-methyl-imidazol-1-yl)-propanoyl]-4,5,6,7-tetrahydro-thieno[2,3-c]pyridin-2-yl}-3-(2-ethoxy-phenyl)-butyramide] | 300 to 2000
22 | ≥ 40000 | CCOc1ccccc1CCC(=O)Nc1sc2c(c1C#N)CCN(C(=O)Cn1ccnc1C)C2 [Example 131, N-{3-Cyano-6-[2-(2-methyl-imidazol-1-yl)-ethanoyl]-4,5,6,7-tetrahydro-thieno[2,3-c]pyridin-2-yl}-3-(2-ethoxy-phenyl)-propionamide] | ≤ 300
23 | ≥ 40000 | COc1ccccc1CCC(=O)Nc1sc2c(c1C#N)CCN(C(=O)CCn1ccnc1)C2 [Example 101, N-[3-Cyano-6-(3-imidazol-1-yl-propanoyl)-4,5,6,7-tetrahydro-thieno[2,3-c]pyridin-2-yl]-3-(2-methoxy-phenyl)-propionamide] | ≤ 300
24 | ≥ 10000 | COc1ccccc1CCC(=O)Nc1sc2c(c1C#N)CCN(C(=O)CCn1cc(C)nc1C)C2 [Example 161, N-{3-Cyano-6-[3-(2,4-dimethyl-imidazol-1-yl)-propanoyl]-4,5,6,7-tetrahydro-thieno[2,3-c]pyridin-2-yl}-3-(2-methoxy-phenyl)-propionamide] | 300 to 2000
25 | ≥ 10000 | COc1ccccc1CCC(=O)Nc1sc2c(c1C#N)CCN(C(=O)CCn1cnc(C)c1)C2 [Example 155, N-{3-Cyano-6-[3-(4-methyl-imidazol-1-yl)-propanoyl]-4,5,6,7-tetrahydro-thieno[2,3-c]pyridin-2-yl}-3-(2-methoxy-phenyl)-propionamide] | 300 to 2000
26 | ≥ 40000 | COc1ccccc1C(C)CC(=O)Nc1sc2c(c1C#N)CCN(C(=O)CCn1ccnc1)C2 (racemic) [Example 99, (RS)—N-[3-Cyano-6-(3-imidazol-1-yl-propanoyl)-4,5,6,7-tetrahydro-thieno[2,3-c]pyridin-2-yl]-3-(2-methoxy-phenyl)-butyramide] | 300 to 2000
27 | ≥ 40000 | COc1ccccc1C(C)CC(=O)Nc1sc2c(c1C#N)CCN(C(=O)Cn1cnc(C)c1)C2 (racemic) [Example 135, (RS)—N-{3-Cyano-6-[2-(4-methyl-imidazol-1-yl)-ethanoyl]-4,5,6,7-tetrahydro-thieno[2,3-c]pyridin-2-yl}-3-(2-methoxy-phenyl)-butyramide] | 300 to 2000

— US7763728B2, “Tetrahydropyridothiophenes” (4SC AG, priority 2005, dated 2010)
